Assay results reported in patent US20100055179A1, “Composition of and Method for Preparing Orally Disintegrating Tablets Containing a High Dose of Pharmaceutically Active Ingredients” (MALLINCKRODT INC., priority 2006, published 2010).

How the values were obtained:
Assay type in all cases: physicochemical
[1] = Wetting test (simulated in vivo disintegration time)
Description: (4) Wetting Test-One Whatman filter disc (21 mm in diameter) was placed in each well of a Corning 12-well polystyrene microplate (22 mm in diameter). One and a half […] of Sensient Blue #1 dye solution (similar to in vivo conditions-tongue surface) was then added into each well. An ODT tablet was carefully placed on the surface of the wet paper disc in each well using a pair of forceps, tablet face flat on the filter paper. Finally, the total wetting time was recorded as the time required for the blue dye solution to cover the surface of the tablet as simulated in vivo disintegration time.

[2] = In vitro disintegration test (USP Test No. 701)
Description: (3) In vitro disintegration test-The disintegration time of the tablets was determined according to U.S. Pharmacopeia, Test No. 701.

[3] = Friability test (USP <1216>)
Description: (2) Friability test-The friability test method was performed by a Varian Friabilator according to the USP tablet friability method described in <1216> Tablet Friability of the General chapters describing General Test Assays.

[4] = Hardness test (tablet crushing load, Varian VK-200)
Description: (1) Hardness test-The ODT tablet crushing load, which is the force (kilopond, kP) required to break a tablet into halves by compression in the diametral direction, was measured with a hardness tester (Varian Hardness Tester, VK-200).

[5] = 0.3% (w/w) APAP as COMPAP with Formulation A granules, Example 4
[6] = 0.3% (w/w) regular APAP blended with Formulation A granules, 400 mg tablet, Example 2
[7] = 0.3% (w/w) regular APAP wet-granulated with Formulation A, Example 3
[8] = 1.0% (w/w) APAP as COMPAP with Formulation A granules, Example 4
[9] = 1.0% (w/w) regular APAP blended with Formulation A granules, 400 mg tablet, Example 2
[10] = 1.0% (w/w) regular APAP wet-granulated with Formulation A, Example 3
[11] = 10.0% (w/w) APAP as COMPAP with Formulation A granules, Example 4
[12] = 10.0% (w/w) regular APAP blended with Formulation A granules, 400 mg tablet, Example 2
[13] = 10.0% (w/w) regular APAP wet-granulated with Formulation A, Example 3
[14] = 15.0% (w/w) regular APAP blended with Formulation A granules, 400 mg tablet, Example 2
[15] = 20.0% (w/w) APAP as COMPAP with Formulation A granules, Example 4
[16] = 20.0% (w/w) regular APAP wet-granulated with Formulation A, Example 3
[17] = 30.0% (w/w) APAP as COMPAP with Formulation A granules, Example 4
[18] = 30.0% (w/w) regular APAP wet-granulated with Formulation A, Example 3
[19] = 40.0% (w/w) APAP as COMPAP with Formulation A granules, Example 4
[20] = 50.0% (w/w) APAP as COMPAP with Formulation A granules, Example 4

In the case of `CC(=O)Nc1ccc(O)cc1` [APAP, Acetaminophen], the Wetting time [1, 5] is reported as 15 s, the Wetting time [1, 6] is reported as 12 s and the Wetting time [1, 7] is reported as 18 s. For the same compound, the Wetting time [1, 8] was 16 s, the Wetting time [1, 9] was 11 s and the Wetting time [1, 10] was 21 s. It also gave a Wetting time [1, 11] of 22 s, a Wetting time [1, 12] of 10 s and a Wetting time [1, 13] of 30 s. It also gave a Wetting time [1, 14] of 9 s, a Wetting time [1, 15] of 30 s and a Wetting time [1, 16] of 25 s. It also gave a Wetting time [1, 17] of 45 s, a Wetting time [1, 18] of 21 s and a Wetting time [1, 19] of 65 s. The Wetting time [1, 20] was 117 s, the “USP-DIT (in vitro disintegration time, USP method)” value (shortened to “USP-DIT”) [2, 5] was 26 s and the “USP-DIT” value [2, 6] was 18 s. The “USP-DIT” value [2, 7] was 12 s, the “USP-DIT” value [2, 8] was 15 s and the “USP-DIT” value [2, 9] was 20 s. For the same compound, the “USP-DIT” value [2, 10] was 12 s, the “USP-DIT” value [2, 11] was 11 s and the “USP-DIT” value [2, 12] was 9 s. For the same compound, the “USP-DIT” value [2, 13] was 18 s, the “USP-DIT” value [2, 14] was 10 s and the “USP-DIT” value [2, 15] was 11 s. The “USP-DIT” value [2, 16] was 19 s, the “USP-DIT” value [2, 17] was 16 s and the “USP-DIT” value [2, 18] was 28 s. For the same compound, the “USP-DIT” value [2, 19] was 16 s, the “USP-DIT” value [2, 20] was 16 s and the Friability [3, 5] was 0.5%. It also gave a Friability [3, 6] of 0.02%, a Friability [3, 7] of 0.3% and a Friability [3, 8] of 0.3%. For the same compound, the Friability [3, 9] was 0.03%, the Friability [3, 10] was 0.2% and the Friability [3, 11] was 0.5%. For the same compound, the Friability [3, 12] was 0.46%, the Friability [3, 13] was 0.0% and the Friability [3, 14] was 0.08%. For the same compound, the Friability [3, 15] was 0.0%, the Friability [3, 16] was 0.2% and the Friability [3, 17] was 0.5%. The Friability [3, 18] was 0.0%, the Friability [3, 19] was 0.0% and the Friability [3, 20] was 0.3%. The Hardness [4, 5] was 7.9 kP, the Hardness [4, 6] was 8.1 kP and the Hardness [4, 7] was 8.1 kP. The Hardness [4, 8] was 7.6 kP, the Hardness [4, 9] was 9.3 kP and the Hardness [4, 10] was 8.6 kP. The Hardness [4, 11] was 8.0 kP, the Hardness [4, 12] was 6.5 kP and the Hardness [4, 13] was 8.5 kP. The Hardness [4, 14] was 6.8 kP, the Hardness [4, 15] was 9.1 kP and the Hardness [4, 16] was 7.5 kP. For the same compound, the Hardness [4, 17] was 7.2 kP, the Hardness [4, 18] was 7.9 kP and the Hardness [4, 19] was 5.7 kP. The Hardness [4, 20] was 4.2 kP.
